In BindingDB's records for doi:10.1021/acs.jmedchem.8b00159 (China Pharmaceutical University, 2018):

Experiments:
[1] = target: T1, Isocitrate dehydrogenase [NADP], mitochondrial (Homo sapiens, UniProt P48735); assay: Inhibition of IDH2 R140Q mutant (unknown origin) assessed as reduction in NADPH consumption using alpha-KG as substrate incubated for 60 mins by diaphorase and resazurin dye based assay
T1 sequence (P48735 whole entry): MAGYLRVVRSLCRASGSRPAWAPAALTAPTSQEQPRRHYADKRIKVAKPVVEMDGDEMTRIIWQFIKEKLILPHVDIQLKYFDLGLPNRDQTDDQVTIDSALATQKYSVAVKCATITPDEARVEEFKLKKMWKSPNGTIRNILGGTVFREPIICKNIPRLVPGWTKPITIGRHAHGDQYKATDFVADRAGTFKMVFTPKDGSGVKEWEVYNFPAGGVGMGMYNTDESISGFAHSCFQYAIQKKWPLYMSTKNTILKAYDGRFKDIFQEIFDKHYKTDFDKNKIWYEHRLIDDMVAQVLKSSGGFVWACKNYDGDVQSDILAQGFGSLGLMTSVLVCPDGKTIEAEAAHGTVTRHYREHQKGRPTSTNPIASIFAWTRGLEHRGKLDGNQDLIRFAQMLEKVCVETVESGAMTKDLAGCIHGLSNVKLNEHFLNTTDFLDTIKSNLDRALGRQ

[2] = target: T2, Isocitrate dehydrogenase [NADP] cytoplasmic (Homo sapiens, UniProt O75874); assay: Inhibition of IDH1 R132C mutant (unknown origin) assessed as reduction in NADPH consumption using alpha-KG as substrate incubated for 60 mins by diaphorase and resazurin dye based assay
Target sequence in this assay (O75874 2-414 R132C limits assumed): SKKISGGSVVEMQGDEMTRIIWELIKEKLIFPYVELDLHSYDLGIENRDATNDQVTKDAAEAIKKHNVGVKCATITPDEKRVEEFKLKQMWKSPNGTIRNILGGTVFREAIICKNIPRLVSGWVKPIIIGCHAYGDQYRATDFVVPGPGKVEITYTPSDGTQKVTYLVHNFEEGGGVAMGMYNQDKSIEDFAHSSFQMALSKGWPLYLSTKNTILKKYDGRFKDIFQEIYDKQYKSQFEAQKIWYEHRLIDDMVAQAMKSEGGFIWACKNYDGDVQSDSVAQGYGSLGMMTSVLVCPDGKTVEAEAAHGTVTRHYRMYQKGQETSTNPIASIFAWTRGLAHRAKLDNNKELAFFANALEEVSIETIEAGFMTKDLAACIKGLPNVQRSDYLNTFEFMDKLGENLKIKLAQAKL

[3] = target: T2, Isocitrate dehydrogenase [NADP] cytoplasmic; assay: Inhibition of IDH1 R132H mutant (unknown origin) assessed as reduction in NADPH consumption using alpha-KG as substrate incubated for 60 mins by diaphorase and resazurin dye based assay
Target sequence in this assay (O75874 2-414 R132H limits assumed): as the sequence (O75874 2-414 R132C limits assumed) above, with C131H counted along it

Measured: IC50

CC(F)(F)c1cccc(-c2nc(NC3CCC(F)(F)C3)nc(NC3CCC(F)(F)C3)n2)n1 (configuration not stated) [US10028961, Compound 105]
< 50 nM: all assays above

C[C@@H](Nc1nc(N[C@H](C)C2CC2)nc(-n2ccc(C(F)(F)F)n2)n1)C1CC1 [US10028961, Compound 121]
< 50 nM: all assays above

FC1(F)CC(Nc2nc(NC3CC(F)(F)C3)nc(-c3nc(C(F)(F)F)cs3)n2)C1 [US10028961, Compound 128]
< 50 nM: all assays above

FC1(F)CCC(Nc2nc(NC3CCC(F)(F)CC3)nc(-c3cncc(C(F)(F)F)n3)n2)CC1 [US10028961, Compound 160]
< 50 nM: all assays above
